Source: the supplement of paper PMC10307832

Legend:
Assay in all cases: relative viability (nuclei count vs DMSO), 5 days (fraction); higher = more cells survive
BGJ398 + Lapatinib = compound: CCN1CCN(c2ccc(Nc3cc(N(C)C(=O)Nc4c(Cl)c(OC)cc(OC)c4Cl)ncn3)cc2)CC1 [BGJ398] + CS(=O)(=O)CCNCc1ccc(-c2ccc3ncnc(Nc4ccc(OCc5cccc(F)c5)c(Cl)c4)c3c2)o1 [Lapatinib] (partner 2 µM)
Procedure, shortened: (§1)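 Each reported value is a median over duplicate plates. It expresses relative viability: treated-well nuclei count divided by vehicle-well nuclei count. Lung cancer cell lines in 1536-well plates were dosed by pin tool a day after seeding, alone with one drug or with a fixed anchor-drug dose plus five library-drug doses (not always all listed) in √10 steps, and nuclei were counted after 5 days.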

[1] = compound: C1=CC2=NC=CN=C2C=C1/C=C/3\C(=O)NC(=O)S3 + N=C(N)NC(=N)NCCc1ccccc1 [Phenformin] (partner 250 µM)
Procedure, shortened: as §1

[2] = compound: C1=CC2=NC=CN=C2C=C1/C=C/3\C(=O)NC(=O)S3 + O=C(CCCCCCC(=O)Nc1ccccc1)NO [Vorinostat] (partner 1 µM)
Procedure, shortened: as §1

BGJ398 + Vorinostat = compound: CCN1CCN(c2ccc(Nc3cc(N(C)C(=O)Nc4c(Cl)c(OC)cc(OC)c4Cl)ncn3)cc2)CC1 [BGJ398] + O=C(CCCCCCC(=O)Nc1ccccc1)NO [Vorinostat] (partner 1 µM)
Procedure, shortened: as §1

Cell Line	relative viability (BGJ398 + Lapatinib; first compound 0.01 µM)	relative viability (BGJ398 + Lapatinib; first compound 0.03162 µM)	relative viability (BGJ398 + Lapatinib; first compound 0.1 µM)	relative viability (BGJ398 + Lapatinib; first compound 0.3162 µM)	relative viability (BGJ398 + Lapatinib; first compound 1 µM)	relative viability ([1]; first compound 0.02 µM)	relative viability ([1]; first compound 0.06325 µM)	relative viability ([1]; first compound 0.2 µM)	relative viability ([1]; first compound 0.6325 µM)	relative viability ([1]; first compound 2 µM)	relative viability ([2]; first compound 0.02 µM)	relative viability ([2]; first compound 0.06325 µM)	relative viability ([2]; first compound 0.2 µM)	relative viability ([2]; first compound 0.6325 µM)	relative viability ([2]; first compound 2 µM)	relative viability (BGJ398 + Vorinostat; first compound 0.01 µM)	relative viability (BGJ398 + Vorinostat; first compound 0.03162 µM)	relative viability (BGJ398 + Vorinostat; first compound 0.1 µM)	relative viability (BGJ398 + Vorinostat; first compound 0.3162 µM)	relative viability (BGJ398 + Vorinostat; first compound 1 µM)
NCI-H838	0.755	0.867	0.914	0.623	0.413	0.664	0.737	0.596	0.461	0.36	0.674	0.702	0.762	0.686	0.579	0.664	0.697	0.695	0.633	0.629
NCI-H1755	1.01	1.04	1.05	1.01	1.01	0.578	0.625	0.588	0.62	0.562	0.681	0.695	0.832	0.858	0.818	0.714	0.746	0.827	0.733	0.72
HCC-78	0.568	1.04	1	0.707	0.581	0.597	0.592	0.698	0.698	0.368	0.464	0.428	0.379	0.449	0.349	0.427	0.417	0.518	0.481	0.577
IA-LM	0.864	0.742	0.846	0.704	0.758						0.884	0.467	0.964	0.985	0.968	0.797	0.806	1.09	0.972	0.894
NCI-H322M	0.675	0.561	0.551	0.581	0.58	0.744	0.813	0.796	0.776	0.669	0.893	0.852	0.905	0.891	0.744	1.04	0.853	0.942	0.892	0.876
NCI-H3122	0.97	1.03	1.03	1.07	1.08	0.401	0.356	0.379	0.392	0.366	0.926	0.981	1.03	1.07	1.05	0.99	0.991	1.01	0.996	1.2
COR-L23	0.887	0.903	1.15	0.992	0.908	0.459	0.455	0.46	0.43	0.425	0.39	0.486	0.471	0.408	0.345	0.443	0.52	0.445	0.485	0.484
NCI-H2087	0.951	0.975	1.09	1.17	0.885	0.428	0.33	0.42	0.493	0.502	0.536	0.742	0.58	0.646	0.469	0.552	0.442	0.816	0.679	0.657
LC-2-ad	0.937	1.02	1	0.978	0.912	0.61	0.601	0.655	0.578	0.417	0.589	0.768	0.707	0.668	0.434	0.708	0.76	0.742	0.687	0.703
NCI-H1915	0.976	0.977	0.988	1.01	0.928	0.354	0.415	0.378	0.371	0.375	0.578	0.525	0.636	0.468	0.499	0.466	0.515	0.597	0.54	0.486
NCI-H1792	0.928	0.874	0.999	0.909	0.756	0.351	0.177	0.465	0.341	0.113										
ChaGo-K-1						0.45	0.466	0.516	0.35	0.369	0.742	0.544	0.756	0.662	0.652	0.67	0.775	0.706	0.802	0.794
NCI-H522						0.65	0.608	0.666	0.564	0.579	0.768	0.839	1.22	0.75	0.795	0.926	0.802	0.935	1.01	0.888
NCI-H1299	0.956	0.956	0.943	0.968	0.972															
NCI-H1648											0.435	0.357	0.424		0.423	1.6		0.363	0.46	0.369
NCI-H2342						0.486	0.577	0.739	0.565	0.526	0.677	0.781	0.799	0.731	0.636	0.845	0.703	0.959	0.711	0.801
SW 900						0.675	0.601	0.702	0.4	0.551	0.544	0.517	0.453		0.647	0.534	0.425	0.562	0.261	0.24
A549	0.885	0.99	0.952	0.919	0.819	0.175	0.137	0.156	0.2	0.152										
NCI-H1563	0.926	1.01	0.761	0.721	0.669	0.667	0.674	0.657	0.648	0.663										
LCLC-103H						0.325	0.322	0.351	0.354	0.25	0.694	0.804	0.846	0.685	0.651	0.769	0.784	0.68	0.697	0.602
NCI-H441						0.856	1.06	0.84	0.755	0.327	0.794	0.786	0.948	0.845	0.509		0.73	0.822	0.916	0.81
